Measurements from BindingDB's records for doi:10.1111/cbdd.12587 (Jiangnan University, 2015).

Target: T1, Tyrosine-protein phosphatase non-receptor type 1 (Homo sapiens, UniProt P18031)
T1 sequence (P18031 whole entry): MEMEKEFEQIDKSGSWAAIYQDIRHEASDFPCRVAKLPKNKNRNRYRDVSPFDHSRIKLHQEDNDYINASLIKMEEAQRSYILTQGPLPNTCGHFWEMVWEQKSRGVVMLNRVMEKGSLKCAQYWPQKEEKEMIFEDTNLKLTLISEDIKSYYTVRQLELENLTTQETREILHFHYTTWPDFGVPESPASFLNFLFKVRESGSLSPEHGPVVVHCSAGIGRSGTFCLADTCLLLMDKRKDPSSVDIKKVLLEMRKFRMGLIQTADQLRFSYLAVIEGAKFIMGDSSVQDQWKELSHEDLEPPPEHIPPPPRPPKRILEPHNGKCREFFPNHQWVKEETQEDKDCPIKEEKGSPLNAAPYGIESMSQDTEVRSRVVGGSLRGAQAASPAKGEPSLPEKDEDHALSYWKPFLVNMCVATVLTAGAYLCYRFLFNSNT
Assay: Colorimetric Assay
Settings: pH 6.5
Procedure: Briefly, the tested compounds were solubilized in DMSO and serially diluted into concentrations for the inhibitory test. The assays were carried out in a final volume of 100 µL containing 50 mmol/L MOPS, pH 6.5, 2 mmol/L pNPP, 21 nmol/L GST-PTP1B or GST-TCPTP, and 2% DMSO, and the catalysis of pNPP was continuously monitored on a SpectraMax 340 microplate reader at 405 nm for 3 min at 30 °C

First: O=C(c1ccc(-c2ccc(C(=O)N3CCC4(CC3)CC(c3ccccc3)=NO4)cc2)cc1)N1CCC2(CC1)CC(c1ccccc1)=NO2 [Biphenyl-4,4'-diylbis((3-phenyl-1-oxa-2,8-diazaspiro[4.5]dec-2-en-8-yl)methanone) (6f)]
Second: O=C(c1ccc(-c2ccc(C(=O)N3CCC4(CC3)CC(c3ccccc3F)=NO4)cc2)cc1)N1CCC2(CC1)CC(c1ccccc1F)=NO2 [Biphenyl-4,4'-diylbis((3-(2-fluorophenyl)-1-oxa-2,8-diazaspiro[4.5]dec-2-en-8-yl)methanone) (6g)]
The IC50 of the first is 1.7-fold lower: 2.87 µM for the first, 4.96 µM for the second. The first is the more potent here.

Compound O=C(c1ccc(-c2ccc(C(=O)N3CCC4(CC3)CC(c3cccc(F)c3)=NO4)cc2)cc1)N1CCC2(CC1)CC(c1cccc(F)c1)=NO2 [Biphenyl-4,4'-diylbis((3-(3-fluorophenyl)-1-oxa-2,8-diazaspiro[4.5]dec-2-en-8-yl)methanone) (6h)] has an IC50 of 5.33 µM.
